These substances were tested against T1, lipase enzyme (Thermomyces lanuginosus, UniProt O59952, N255R/T253R) (assay: Effect of surfactant concentration on lipase activity in the washing liquor). Conditions: not given.
T1 construct: purchased Novozymes LIPEX 100 L
T1 sequence (O59952 23-291 T253R/N255R): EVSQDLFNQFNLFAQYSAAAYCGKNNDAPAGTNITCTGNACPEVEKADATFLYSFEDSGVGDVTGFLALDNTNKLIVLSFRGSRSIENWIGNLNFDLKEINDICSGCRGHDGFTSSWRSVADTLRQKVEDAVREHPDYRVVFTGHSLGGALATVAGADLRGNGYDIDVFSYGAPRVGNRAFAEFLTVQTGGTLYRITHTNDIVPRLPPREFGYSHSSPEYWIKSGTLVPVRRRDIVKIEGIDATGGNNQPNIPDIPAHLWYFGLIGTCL
Assay type: biochemical
Description: (§1) The total hydrolysis of rapeseed oil in a wash process was tested with washing liquors that were always comprising the same concentration of a lipase enzyme concentrate. A blank test was performed without any added surfactant. This blank test served as the reference with which could be compared the other results obtained with the same washing liquor samples into which one of a number of different non-ionic surfactants were added.
(§2) For each liquor was tested the appearance of free oleic acid generated from the hydrolysis of a standard amount of rapeseed oil with which the liquor was brought in contact. Monitored by High Performance Liquid Chromatography (HPLC) was the quantitative release of free oleic acid (C18:1 fatty acid) in the washing liquor and/or present on the textile, as explained in the protocols that are described in detail in our copending patent application having the attorney docket reference PAT2549761 EP00 and filed on the same day as this application. Because oleic acid is the main fatty acid in the triglycerides of rapeseed oil, the generation of this acid as free fatty acid it is an excellent quantitative marker for the hydrolysis of rapeseed oil, in this context thus also for the activity of the lipase enzyme.
Extra experiments were performed with 5EO-isoC13 surfactant.
For 5EO-isoC13, the “surfactant concentration at which the suppressing activity on lipase becomes noticeable” value was 10 ppm by weight and the “surfactant concentration until which the suppressing effect further grows” value was “about 100 ppm by weight”.

Same assay, conditions: from about 100 up to 250 ppm by weight surfactant
For 5EO-isoC13, the “suppressing effect when further increasing the surfactant presence” value was “remains about the same”.

These substances were tested against T1, lipase enzyme (assay: Total hydrolysis of rapeseed oil in a wash process: effect of surfactants on lipase enzyme activity (free oleic acid by HPLC)). Conditions: about 100 ppm by weight surfactant; about 0.2 g/litre lipase concentrate; pH about 9.6; about 50° C.; 2° fH; compared with blank and LES (Sample C).
Assay type: biochemical
Description: as §1
In the experiments, the lipase concentrate was always present in a concentration of about 0.2 gram of the concentrate per litre of total liquor.
The washing tests were performed at a temperature of about 50° C. The water in the formulations was demineralised water obtained by reverse osmosis (RO).
Different washing liquors were prepared containing about 100 ppm by weight of a selected surfactant, to be compared with a blank liquor containing only the lipase enzyme concentrate and no surfactants.
as §2
A series of tests were performed using washing liquors having a hardness of 2° fH. […] For each surfactant choice 2 duplicate samples were tested, except for Sample J (3 duplicates) and Sample K (only 1 sample tested). […] Also shown for each bar with a surfactant is an error bar showing the difference between the lowest and the highest of the duplicates.
5EO-C13-C15 [M] was tested, and the “effect of the surfactant on lipase activity in the washing liquor (in words)” value (from here on “effect of the surfactant”) was “relatively benign”.
For 5EO-isoC13, the “effect of the surfactant” value was “not better than the conventional LES surfactant”.
In the case of 7EO-C13-15 [N], the “effect of the surfactant” value is reported as “much larger depressing effect”.
For 7EO-isoC13 [F], the “effect of the surfactant” value was “not better than the conventional LES surfactant”.
For 9EO-isoC13 [G], the “effect of the surfactant” value was “not better than the conventional LES surfactant”.
With 10EO-isoC13 [H] the “effect of the surfactant” value was “not better than the conventional LES surfactant”.
For C8-C10 APG-DP of 1.7 [Sample K], the “effect of the surfactant” value was “much lower depressing effect”.
For “C8-C10 alkyl polyglucoside (APG) with an average degree of polymerisation (DP) of 1.5”, the “effect of the surfactant” value was “much lower depressing effect”.
With C8-C16 APG-DP of 1.5 [Sample J] the “effect of the surfactant” value was “much lower depressing effect”.
In the case of “C9-C11 fatty alcohol alkoxylated with an average ethoxylation degree of about 6 and an average propoxylation degree of about 4 [Sample O]”, the “effect of the surfactant” value is reported as “worse than the LES reference”.
In the case of C12-C14 amine oxide [P], the “effect of the surfactant” value is reported as “significant boost”.
For “a mixture of linear C13-C15 alcohol that has been ethoxylated to an average degree of about 3”, the “effect of the surfactant” value was “relatively benign”.
In the case of “isotridecyl alcohol ethoxylated to an average degree of ethoxylation of about 3”, the “effect of the surfactant” value is reported as “not better than the conventional LES surfactant”.

Same assay, conditions: about 100 ppm by weight surfactant; about 0.2 g/litre lipase concentrate; pH about 9.6; about 50° C.; hardness 2° fH
For Lauryl ether sulphate [Sample C], the “lipase activity relative to the blank liquor (A), set at 100%” value was “about 40%”.
In the case of “Linear Alkyl Benzene Sulphonate [Sample B]”, the “lipase activity relative to the blank liquor (A), set at 100%” value is reported as 12%.
